Tests used:
Assay type in all cases: cell-based
bovine STRA6 = test: STRA6 expression in primary bovine RPE culture (semi-quantitative PCR); details: 100 nM RNAi oligo, transfected twice, 72 h each
Experimental: Primary culture and RNAi transfection of bovine RPE cells: Primary cultures of RPE cells were derived from adult bovine eyes obtained from a local slaughterhouse. After the removal of vitreous and retina, the posterior half of the eye was incubated in 2% Dispase solution (Boehringer Mannheim) for 2 h. Sheets of RPE cells were then collected and washed with Hanks' Balanced salt solution (Irvine Scientific). The RPE cells were exposed to 0.05% Trypsin and 0.02% EDTA solution for 5 minutes at room temperature. The RPE cells were suspended in CEM replacement medium containing 10% calf serum and 1% penicillin-streptomycin as described previously (12), and the cells were then seeded at a density of 3×10^5 cells/cm^2 onto 12 mm millicell-PCF culture wells with a pore size of 0.45 um (Millipore Corp.). The RPE cells were maintained at 37° C. in a 5% CO2 incubator for 10 days before RNAi transfection. For RNAi transfection, bovine RPE cells were washed once with PBS and incubated in fresh DMEM/10% FBS media. Cells were transfected with 100 nM RNAi oligos (Stealth RNAi, Invitrogen) using DharmaFect1 according to manufacturer's protocol and incubated at 37° C. for 72 h. Cells were then transfected under the same conditions and incubated for another 72 h. RNAi oligo sequences used for this assay were 5′-[…]-3′ (S-4) (SEQ ID NO:8), 5′-[…]-3′ (S-5) (SEQ ID NO:9) and 5′-[…]-3′ (S-6) (SEQ ID NO:10). Semi-quantitative PCR was carried out for 26 cycles at 95° C. for 30 sec (denaturation), 60° C. for 30 sec (annealing), and 72° C. for 30 min (extension). cDNA synthesized from 32 ng of total RNA was used for each reaction. Primers used for PCR reaction to detect bovine STRA6 are 5′-[…]-3′ (forward primer (SEQ ID NO:11)), 5′-[…]-3′ (reverse primer (SEQ ID NO:12)).

[1] = test system: primary bovine RPE culture; test: Vitamin A uptake activity of primary bovine RPE culture from holo-RBP; details: 100 nM RNAi oligo, transfected twice, 72 h each
Experimental: (§1) Production of ^3H-retinol loaded RBP and retinol uptake assay based on ^3H-retinol/RBP: Apo-RBP was prepared from holo-RBP as described (3). Radioactive retinol (15-^3H(N)-retinol) was purchased from American Radiolabeled Chemicals Inc. Ten micrograms apo-His-RBP was incubated with 150 pmol retinol (3 μCi) at 24° C. overnight. Radiolabeled holo-His-RBP was bound to Ni-NTA resin and the resin was washed extensively with 10 mM imidazole in PBS. Radiolabeled His-RBP was eluted with 100 mM imidazole in PBS. For the vitamin A uptake assay, transfected or untransfected cells grown on 12-well or 24-well cell culture plates were washed once with PBS and incubated with the ^3H-retinol/RBP diluted in SFM for various lengths of time. The reactions were stopped by washing the cells with PBS and solubilizing cells in 1% Triton X-100 in PBS. Radioactivity was measured with a scintillation counter.
Primary culture and RNAi transfection of bovine RPE cells: Primary cultures of RPE cells were derived from adult bovine eyes obtained from a local slaughterhouse. After the removal of vitreous and retina, the posterior half of the eye was incubated in 2% Dispase solution (Boehringer Mannheim) for 2 h. Sheets of RPE cells were then collected and washed with Hanks' Balanced salt solution (Irvine Scientific). The RPE cells were exposed to 0.05% Trypsin and 0.02% EDTA solution for 5 minutes at room temperature. The RPE cells were suspended in CEM replacement medium containing 10% calf serum and 1% penicillin-streptomycin as described previously (12), and the cells were then seeded at a density of 3×10^5 cells/cm^2 onto 12 mm millicell-PCF culture wells with a pore size of 0.45 um (Millipore Corp.). The RPE cells were maintained at 37° C. in a 5% CO2 incubator for 10 days before RNAi transfection. […] Semi-quantitative PCR was carried out for 26 cycles at 95° C. for 30 sec (denaturation), 60° C. for 30 sec (annealing), and 72° C. for 30 min (extension). cDNA synthesized from 32 ng of total RNA was used for each reaction. […]

human STRA6 = test: STRA6 expression in WiDr cells (semi-quantitative PCR); details: 100 nM RNAi oligo, 65 hrs
Experimental: RNAi transfection and retinoic acid treatment of human WiDr colon adenocarcinoma cells: WiDr cells (American Type Culture Collection) were grown in Earle's balanced salt media with 10% FBS at 37° C. in a 95% air/5% CO2 humidified incubator. Human STRA6 RNAi oligo sequences were 5′-[…]-3′ (S-1) (SEQ ID NO:3), 5′-[…]-3′ (S-2) (SEQ ID NO:4); and 5′-[…]-3′ (S-3) (SEQ ID NO:5). Stealth™ negative control RNAi with medium GC (Invitrogen) was used for a negative control. WiDr cells were transfected with 100 nM RNAi oligos using DharmaFect1 (Dharmacon) according to the manufacture's protocol. WiDr Cells were split one day before RNAi transfection and cells were incubated with RNAi oligos for 65 hrs after transfection. Retinoic acid treatment was applied for 55 hours. RNA was isolated from WiDr cells using the RNeasy kit (Qiagen). Reverse transcription was performed with Invitrogen's SuperScriptIII First-Strand Synthesis System. Semi-Quantitative PCR was carried out for 24 cycles at 95° C. for 30 sec (denaturation), 63° C. for 30 sec (annealing), and 72° C. for 30 min (extension). cDNA synthesized from 40 ng of total RNA was used for each reaction. Primers used for PCR to detect human STRA6 were 5′-[…]-3′ (human STRA6 forward primer (SEQ ID NO:6)), 5′-[…]-3′ (human STRA6 reverse primer (SEQ ID NO:7)).

[2] = test system: WiDr human colon adenocarcinoma cells; test: Vitamin A uptake activity of WiDr cells from 3H-retinol/RBP; details: 100 nM RNAi oligo, 65 hrs
Experimental: as §1
Effects of metabolic inhibitors on vitamin A uptake and endocytosis: To test the effect of metabolic inhibitors, cells were pretreated with metabolic inhibitors in serum free medium (50 mM 2-deoxyglucose and 5 mM sodium azide) at 37° C. for 30 min before incubation with ^3H-retinol/RBP for 45 min at 37° C. in the continued presence of the metabolic inhibitors. The slight increase in activity for MI-treated cells as shown in FIGS. 4C and 4D is reproducible. Endocytosis assay based on horseradish peroxidase (HRP) was performed similarly as described. Cells (80-100% confluence) were washed once with PBS and then incubated in SFM with or without metabolic inhibitors for 30 min at 37° C. […]
RNAi transfection and retinoic acid treatment of human WiDr colon adenocarcinoma cells: WiDr cells (American Type Culture Collection) were grown in Earle's balanced salt media with 10% FBS at 37° C. in a 95% air/5% CO2 humidified incubator. […] Semi-Quantitative PCR was carried out for 24 cycles at 95° C. for 30 sec (denaturation), 63° C. for 30 sec (annealing), and 72° C. for 30 min (extension). cDNA synthesized from 40 ng of total RNA was used for each reaction. […]

Row | Substance | STRA6 expression (bovine STRA6) | Vitamin A uptake activity [1] | STRA6 expression (human STRA6) | Vitamin A uptake activity [2]
1 | S-6: Bovine STRA6 RNAi oligo 5′-GAGGAUUCCUAUGACAGCUGGUACA-3′ (SEQ ID NO:10) (listed as RNA, chemistry not given here) | suppresses | suppresses | – | –
2 | S-4: Bovine STRA6 RNAi oligo 5′-CCGUCUACAUUCCACAACAAGGAUU-3′ (SEQ ID NO:8) (listed as RNA, chemistry not given here) | suppresses | suppresses | – | –
3 | S-1: Human STRA6 RNAi oligo 5′-UGAAGCUCAUCCAACAGAAUAUGGC-3′ (SEQ ID NO:3) (listed as RNA, chemistry not given here) | – | – | suppresses | suppresses
4 | S-5: Bovine STRA6 RNAi oligo 5′-GGCUACCACACAUACUGCAACUUCU-3′ (SEQ ID NO:9) (listed as RNA, chemistry not given here) | suppresses | suppresses | – | –
5 | S-3: Human STRA6 RNAi oligo 5′-UGAGUAAGCAGGACAAGACCAAGGC-3′ (SEQ ID NO:5) (listed as RNA, chemistry not given here) | – | – | suppresses | suppresses
6 | S-2: Human STRA6 RNAi oligo 5′-UAGAUGCAGUGUCUCAAGCAGACGC-3′ (SEQ ID NO:4) (listed as RNA, chemistry not given here) | – | – | suppresses | suppresses

From patent US20090048196A1, “Membrane receptor for retinol binding protein mediates cellular uptake of vitamin A, methods of use and compositions” (THE REGENTS OF THE UNIVERSITY OF CALIFORNIA, priority 2007, published 2009)
